In patent publication US20070025997A1, “Use of biomolecular targets in the treatment and visualization of brain tumors” (priority 2002, published 2007):
Entries after “also recorded” stand apart in the source; their conditions may differ.

Legend:
G140-DDR1a cells [1] = assay: Invasion assay through Collagen type 1 coated membranes; format: cell-based, human; conditions: 25 μM
Description: (§1) Migration and Invasion Assays: Migration assays were performed using 24-well fluoroblok chambers (BD Biosciences, […] pore size). Cells overexpressing DDR1a, DDR1 b, vector alone (Mock) and parental cells were trypsinized and 1×10^6 cells were suspended in DMEM plus 1% serum. 100, 000 cells were placed in the upper chambers (Becton Dickenson-Fluoroblok plates-8 μm) in triplicate. DMEM with 5% serum was added to the lower chambers. After 4 hours, cells adhering to the underside of the membrane were stained with 4 μg/ml Calcein AM (Molecular Probes, Inc.) and fluorescence emitted by cells that have migrated through the chamber to the underside of the filter was measured at λs of 530/590 nm using a CytoFlor plate reader (Series 4000, Perspective Biosystems). For Invasion Assays: Rat tail Collagen type I (BD Biosciences, 10 μg/ml), human Collagen type IV (BD Biosciences, […]), human Fibronectin (BD Biosciences, 5 μg/ml) were used to coat the underside of the chambers and Fluoroblok plates previously coated with Matrigel (BD Biosciences, 24 wells) were used. […] The cells were allowed to invade through the matrices at 37° C. for 16 hrs and stained with Calcein AM and fluorescence emitted by cells was measured at Xs of 530/590 nm using a CytoFlor plate reader (Series 4000, Perspective Biosystems). […]

MMP-2 = assay: Gelatin zymography of conditioned media (MMP-2 activation); format: cell-based, human
Description: Zymography: Serum-free media from G140 cell lines were stimulated with Collagen type I (10 μg/mL and collected after 24 hr. In some experiments, GM6001 (25 μM, 50 μM) was added to the media. The media was mixed with Tris-Gycine SDS Sample buffer (2×) and 20 μg of protein was subjected to 10% SDS-polyacrylamide gel electrophoresis (Invitrogen, Inc.) using 0.1% gelatin. After electrophoresis, gels were incubated in 2.5% Triton X-100 (Renaturing Buffer, Invitrogen, Inc.) for 30 minutes twice to remove SDS, and replaced with 50 mM Tris-Hcl, pH 7.5 containing 0.15 M NaCl, 10 mM CaCl2, and 0.02% NaN3 (Developing Buffer, Invitrogen, Inc.) overnight and then stained with Coomassie Blue R-250 for 30 minutes.

G140-DDR1a cells [2] = assay: Invasion assay through Matrigel-coated Fluoroblok membranes; format: cell-based, human; conditions: 25 μM
Description: as §1

glioma cells = assay: Migration assay in Fluoroblok chambers; format: cell-based, human; conditions: glioma cells overexpressing DDR1a
Description: as §1

DDR1 [3] = molecular target: T1, DDR1 (Homo sapiens, UniProt Q08345); assay: Immunoprecipitation for DDR1 phosphorylation; format: cell-based; design: expressed in transfected cells; host or cells: G140 glioma cells stably transduced with a pLEN retroviral vector carrying DDR1a or DDR1b; conditions: 10 μg/ml soluble
Description: (§2) Immunoprecipitation for DDR1 phosphorylation: Rat tail collagen type 1 was purchased from Collaborative Biomedical Products (Bedford, Mass., USA). Cells were stimulated with 10 μg/ml soluble collagen type 1 for various periods of time. Cell lysates were prepared in RIPA buffer and immunoprecipitation was performed by incubating 1000 μg of cell extracts with DDR1 (C-20) antibody overnight at 4° C. Protein A beads (Santa Cruz Biotechnology: 50 μl) were added for 1 hr; the beads were washed three times with wash buffer and aliquots of the supernatant were subjected to SDS-PAGE. The blots were probed with monoclonal anti-phosphotyrosine antibody (4G10; Upstate Biotechnology Inc.) and visualized using the enhanced chemiluminescence (ECL) system (Amersham Pharmacia Biotech, Uppsala, Sweden). The blots were stripped and reprobed with a polyclonal antibody for DDR1 (C-20). Western Blot. The blots were probed with β-actin antibody to confirm equal loading.

MMP-1, MMP-2 and MMP-9 = assay: Gelatin zymography of media of DDR1 overexpressing glioma cells (Example 1); format: cell-based, human; conditions: 20 ug/ml; 48 hrs; serum-free medium
Description: DDR1 overexpressing glioma cells reveal increased prescence of MMP-9, MMP-2 and MMP-1. Cells overexpressing DDR1a and DDR1b, DDR1 ex (extracellular domain construct) and Emmprin ex (extracellular domain construct), Ht1080 cells and human Fibroblasts, cells expressing empty vector were plated onto plates. After 24 hrs of plating, media was replaced with Serum-free medium with or without 20 ug/ml Type 1 Collagen and were incubated for 48 hrs at 37° C. Media from cells was collected and concentrated. 10 ug of media from each sample was resolved on a polyacrylamide gel (10%) containing 0.1% gelatin. Following electrophoresis, gels were washed twice with 5% Triton X-100 (30 min each). After washing, the gels were incubated for 24 h at 37° C. in the presence of 50 mM Tris-HCl, 5 mM CaCl2, 5 μM ZnCl2, pH 7.5, stained with Coomassie Brilliant Blue R-250 for 30 min and then destained. MMP-1, MMP-2 and MMP-9 production was induced by native type I collagen.

DDR1 [4] = molecular target: T1, DDR1; assay: DDR1 activation in Glioma cells, anti-phosphotyrosine western blot; format: cell-based; design: DDR1 is phosphorylated as a 125 kD (full length) protein; conditions: 60 minutes, 10 ug/ml (EGF 20 ng/ml)
Description: DDR1 activation in Glioma cells. DDR1 Glioma cells were stimulated with 10 ug/ml of Type1 collagen, 10 ug/ml Vitrogen, 10 ug/ml Fibronectin and 20 ng/ml EGF for 60 minutes. After stimulation, cells were lysed in RIPA buffer and resolved a 10% polyacrylamide gel (10%) gel. Lane 1, Nonstimulates, Lane 2, Type 1 Collagen (10 ug/ml, Lane 3 stimulated with Vitrogen (10 μg/ml), Lane 4 stimulated with human Fibronectin (10 μg/ml), Lane 5 stimulated with EGF 20 ng/ml) for 60 minutes. Cell lysates were analysed by anti-phosphotyrosine (4G10, Upstate Biotechnology) panel a, anti-DDR1 (C-20, Santa Cruz Biotechnology Inc.) panel b, and anti-DDR1 N-terminal H-126 (SCBT) panel c by western blotting. […] DDR1 is proteolytically cleaved in response to ligand stimulation. A 52 kD soluble protein was detected in the media with H-126, a N-terminal anti-DDR1 antibody (panel c).
Target sequence in this assay (Q08345 19-913): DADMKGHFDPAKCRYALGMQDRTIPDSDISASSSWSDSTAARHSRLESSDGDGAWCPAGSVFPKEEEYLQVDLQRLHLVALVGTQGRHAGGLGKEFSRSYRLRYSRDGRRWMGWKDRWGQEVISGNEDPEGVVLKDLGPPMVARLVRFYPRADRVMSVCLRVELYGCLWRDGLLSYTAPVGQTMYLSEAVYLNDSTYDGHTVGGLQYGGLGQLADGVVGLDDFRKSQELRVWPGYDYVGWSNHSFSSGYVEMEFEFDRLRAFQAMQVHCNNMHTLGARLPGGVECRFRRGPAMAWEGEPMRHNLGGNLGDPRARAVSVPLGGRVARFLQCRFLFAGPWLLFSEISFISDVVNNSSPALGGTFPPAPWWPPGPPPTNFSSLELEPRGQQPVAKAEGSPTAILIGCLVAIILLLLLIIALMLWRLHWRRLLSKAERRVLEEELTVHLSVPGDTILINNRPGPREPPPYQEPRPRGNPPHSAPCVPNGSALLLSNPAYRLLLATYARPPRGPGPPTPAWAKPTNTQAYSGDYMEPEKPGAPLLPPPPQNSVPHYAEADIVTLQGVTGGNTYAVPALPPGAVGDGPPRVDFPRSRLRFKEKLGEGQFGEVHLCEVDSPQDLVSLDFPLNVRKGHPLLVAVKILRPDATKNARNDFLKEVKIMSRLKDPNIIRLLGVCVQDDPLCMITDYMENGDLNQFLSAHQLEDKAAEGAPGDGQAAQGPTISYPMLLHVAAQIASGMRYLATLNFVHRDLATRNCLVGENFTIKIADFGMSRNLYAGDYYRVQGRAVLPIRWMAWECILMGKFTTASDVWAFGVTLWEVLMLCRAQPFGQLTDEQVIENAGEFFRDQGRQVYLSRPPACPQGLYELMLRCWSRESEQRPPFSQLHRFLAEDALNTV

DDR1 [5] = molecular target: T1, DDR1; assay: DDR1 internalization, Cellomics ArrayScan; format: cell-based; design: DDR1 is phosphorylated as a 125 kD (full length) protein; conditions: human Glioma derived cells; soluble, 30 minutes
Description: Cells are rinsed once with HBSS and fixed with 3.7% neutral buffered formalin. The fixation solution is aspirated, and the plate washed with blocking buffer, and then incubated with permeabilization buffer for 10 minutes. The cells are then stained with fluorescence conjugated secondary antibody solution containing 10 ug/ml Hoechst 33342 (to stain nuclei) for 30 minutes at room temperature. Plates are washed twice, sealed, and stored in HBSS at 4 C. Images are acquired using the ArrayScan HCS system and internalized receptors quantitated using a proprietary algorithm. The algorithm measures the appearance and intensity of fluorescent receptor aggregates inside the cell. These measurements are represented as mean cytoplasmic intensity (amount of antibody-receptor complex inside the cell) and mean cytoplasmic texture (a measure of the endosome aggregates). Antibodies that trigger receptor internalization are further evaluated. Antibodies that bind to DDR1 on human glioma cells and become internalized are of particular interest. In some instances endocytosis serves as a surrogate marker for other therapeutic biologic effects, such as growth inhibition.
DDR1 internalization. Human Glioma derived were treated with soluble collagen I for 30 minutes and then stained for DDR1. The Cellomics ArrayScan fluorescent microscope instrument was used to identify and quantitate internalized DDR1 (FIG. 8).
Target sequence in this assay (Q08345 19-913): as above

DDR1 [6] = assay: Immunoprecipitation for DDR1 phosphorylation; format: cell-based, human; conditions: G140 parental cells; 10 μg/ml soluble
Description: as §2

CNC(=O)[C@H](Cc1c[nH]c2ccccc12)NC(=O)[C@@H](CC(=O)NO)CC(C)C [GM6001] was tested, and the “DDR1a mediated invasion through collagen type 1” value (G140-DDR1a cells [1]) was “prevented”, the “DDR1a mediated invasion through collagen type 1” value (G140-DDR1a cells [1]; listed as GM60001) was “inhibited” and the “DDR1a stimulated activation / enzymatic activity of MMP-2” value (MMP-2; 25 μm, G140-DDR1a cells, collagen 1 stimulation) was “effectively inhibited; also recorded: prevented”. For the same compound, the “DDR1a mediated invasion through matrigel” value (G140-DDR1a cells [2]) was “prevented”, the “DDR1a mediated invasion through matrigel” value (G140-DDR1a cells [2]; listed as GM60001) was “inhibited” and the “migration of glioma cells” value (glioma cells) was “prevented”.

“Collagen type 1: Rat tail collagen type 1, DDR1 ligand used to stimulate cells” was tested, and the “time of maximal DDR1a phosphorylation” value (DDR1 [3]; G140-DDR1a cells) was 60 min, the “time of peak phosphorylation of G140-DDR1b” value (DDR1 [3]; G140-DDR1b cells) was 90 min and the “MMP-1, MMP-2 and MMP-9 production” value (MMP-1, MMP-2 and MMP-9) was “induced”. For the same compound, the “activation of pro-MMP-2 and Pro-MMP-1” value (MMP-1, MMP-2 and MMP-9) was “Increased activation”, the “tyrosine phosphorylation of DDR1” value (DDR1 [4]; listed as Type 1 Collagen) was “phosphorylated; also recorded: resulted in tyrosine phosphorylation of DDR1” and the “conversion of intermediate (64 kDa) to active form of MMP-2 (62 kDa)” value (MMP-2; 10 μg/ml, G140-DDR1a overexpressing cells) was “increased conversion”. The MMP-2 activation (MMP-2; 10 μg/ml, G140 parental, G140-DDR1b and G140 mock cells) was “did not increase”, the “DDR1 internalization (mean cytoplasmic intensity, cytoplasmic texture)” value (DDR1 [5]) was “induces DDR1 to appear in the cytoplasm” and the “time of peak autophosphorylation of endogenous DDR1” value (DDR1 [6]) was 60 min.

For “EGF: EGF 20 ng/ml, used to stimulate DDR1 Glioma cells”, the “tyrosine phosphorylation of DDR1” value (DDR1 [4]) was “phosphorylated; also recorded: resulted in tyrosine phosphorylation of DDR1”.

For “Fibronectin: human Fibronectin, used to stimulate DDR1 Glioma cells”, the “tyrosine phosphorylation of DDR1” value (DDR1 [4]) was “phosphorylated; also recorded: resulted in tyrosine phosphorylation of DDR1”.
